# How the values were obtained:
# [1] = tested on: HIV-1 pseudovirus pseudotyped with HXB2 Env; test: microbe, parasite or virus in culture; assay type: cell-based; settings: single cycle assay, TZM-bl cells infected with HIV-1 pseudovirus pseudotyped with HXB2 Env;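 further: endpoint is IC50 for inhibition of pseudovirus infection of TZM-bl cells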
# TZM-bl cells = test: Cytotoxicity in TZM-bl cells (XTT); assay type: cell-based; settings: for CC50: XTT, 3 days
# Procedure: The cytotoxicity of test compounds in TZM-bl cells was also measured by the XTT method described previously^7. […] The soluble intracellular formazan was quantitated colorimetrically at 450 nm 4 h later. The percent of cytotoxicity and the CC50 values were calculated as above. (See Table 4)
# [2] = Human immunodeficiency virus 1, HXB2, TZM-bl
SMILES,IC50 [1],CC50 (TZM-bl cells),"IC50 [1, 2]","percentage in brackets after CC50 >51 (TZM-bl cells; printed ""(30%)"" without explanation, presumably toxicity at 51 μM)"
"Cc1nc(C(NC(=O)c2ccc(-c3ccc(Cl)c(F)c3)[nH]2)C2CCCCN2)sc1CO (single isomer, unassigned) [Compound 21]",3.2 ± 0.5 µM,17.4 ± 1.6 µM,,
"Cc1ccc(-c2ccc(C(=O)NC(c3nc(C)c(CO)s3)C3CCCCN3)[nH]2)cc1F (single isomer, unassigned) [Compound 23]",3.8 ± 0.3 µM,≥ 36 µM,,
"Cc1ccc(-c2ccc(C(=O)NC(c3nc(C)c(CCO)s3)C3CCCCN3)[nH]2)cc1F (single isomer, unassigned) [Compound 25]",6.3 ± 0.3 µM,15.3 ± 0.2 µM,,
"Cc1nc(C(NC(=O)c2ccc(-c3ccc(Cl)c(F)c3)[nH]2)C2CCCCN2)sc1CCO (single isomer, unassigned) [Compound 27]",8 ± 0.1 µM,15.1 ± 0.2 µM,,
"Cc1nc(C(NC(=O)c2ccc(-c3ccc(Cl)cc3)[nH]2)C2CCCCN2)sc1CCO (single isomer, unassigned) [Compound 29]",5.9 ± 0.2 µM,15.4 ± 0.3 µM,,
"Cc1nc(C(NC(=O)c2ccc(-c3ccc(Cl)cc3)[nH]2)C2CCCCN2)[nH]c1CO (single isomer, unassigned) [Compound 34]",16 ± 0.1 µM,34 ± 0.1 µM,,
"Cc1nc(C(NC(=O)c2ccc(-c3ccc(Cl)c(F)c3)[nH]2)C2CCCCN2)[nH]c1CO (single isomer, unassigned) [Compound 36]",16.2 ± 0.2 µM,31.5 ± 0.2 µM,,
"Cc1ccc(-c2ccc(C(=O)NC(c3nc(C)c(CO)[nH]3)C3CCCCN3)[nH]2)cc1F (single isomer, unassigned) [Compound 38]",17 ± 0.2 µM,34 ± 0.2 µM,,
"Cc1nc(C(CN)NC(=O)c2ccc(-c3ccc(Cl)cc3)[nH]2)sc1CO (single isomer, unassigned) [Compound 40]",,~40 µM,,
"Cc1nc(C(CN)NC(=O)c2ccc(-c3ccc(Cl)c(F)c3)[nH]2)sc1CO (single isomer, unassigned) [Compound 42]",,≥ 33 µM,,
"Cc1ccc(-c2ccc(C(=O)NC(CN)c3nc(C)c(CO)s3)[nH]2)cc1F (single isomer, unassigned) [Compound 44]",1.1 ± 0.1 µM,≥ 34 µM,,
"Cc1nc(C(CNC(=N)N)NC(=O)c2ccc(-c3ccc(Cl)cc3)[nH]2)sc1CO (single isomer, unassigned) [Compound 46]",≥ 20 µM,> 37 µM,,
"Cc1nc(C(CNC(=N)N)NC(=O)c2ccc(-c3ccc(Cl)c(F)c3)[nH]2)sc1CO (single isomer, unassigned) [Compound 47]",≥ 20 µM,> 36 µM,,
"Cc1ccc(-c2ccc(C(=O)NC(CNC(=N)N)c3nc(C)c(CO)s3)[nH]2)cc1F (single isomer, unassigned) [Compound 50]",> 20 µM,> 37 µM,,
"Cc1nc(C(CN)NC(=O)c2ccc(-c3ccc(Cl)c(F)c3)[nH]2)sc1CO (single isomer, unassigned) [Compound 52]",,50.5 ± 1.3 µM,,
"CNCC(NC(=O)c1ccc(-c2ccc(C)c(F)c2)[nH]1)c1nc(C)c(CO)s1 (single isomer, unassigned) [Compound 55]",,~40 µM,,
"CNCC(NC(=O)c1ccc(-c2ccc(Cl)c(F)c2)[nH]1)c1nc(C)c(CO)s1 (single isomer, unassigned) [Compound 57]",~0.6 µM,~20 µM,,
"CNCC(NC(=O)c1ccc(-c2ccc(Cl)cc2)[nH]1)c1nc(C)c(CO)s1 (single isomer, unassigned) [Compound 59]",,~22 µM,,
"CC(=O)NCC(NC(=O)c1ccc(-c2ccc(Cl)c(F)c2)[nH]1)c1nc(C)c(CO)s1 (single isomer, unassigned) [Compound 60]",,> 44 µM,,
"CC(=O)NCC(NC(=O)c1ccc(-c2ccc(Cl)c(F)c2)[nH]1)c1nc(C)c(CO)s1 (single isomer, unassigned) [Compound 61]",,> 44 µM,,
"Cc1nc(C(CN(C)C)NC(=O)c2ccc(-c3ccc(Cl)cc3)[nH]2)sc1CO (single isomer, unassigned) [Compound 63]",,~30 µM,,
"Cc1ccc(-c2ccc(C(=O)NC(CN(C)C)c3nc(C)c(CO)s3)[nH]2)cc1F (single isomer, unassigned) [Compound 65]",6.3 ± 1.8 µM,> 40 µM,,
"Cc1nc(C(CN(C)C)NC(=O)c2ccc(-c3ccc(Cl)c(F)c3)[nH]2)sc1CO (single isomer, unassigned) [Compound 68]",7.2 ± 3 µM,~29 µM,,
"Cc1cc(-c2ccc(Cl)cc2)[nH]c1C(=O)NC(CN)c1nc(C)c(CO)s1 (single isomer, unassigned) [Compound 69]",,27.2 ± 0.8 µM,,
"Cc1cc(-c2ccc(Cl)cc2)[nH]c1C(=O)NC(CN)c1nc(C)c(CO)s1 (single isomer, unassigned) [Compound 70]",1.1 ± 0.3 µM,26.4 ± 0.7 µM,,
"Cc1ccc(-c2ccc(C(=O)NC(CCN(C)C)c3nc(C)c(CO)s3)[nH]2)cc1F (single isomer, unassigned) [Compound 73]",6.6 ± 0.2 µM,37.1 ± 5.7 µM,,
"Cc1nc(C(CCN(C)C)NC(=O)c2ccc(-c3ccc(Cl)c(F)c3)[nH]2)sc1CO (single isomer, unassigned) [Compound 75]",1.5 ± 0.3 µM,21.3 ± 0.6 µM,,

SMILES,IC50 [1],CC50 (TZM-bl cells),"IC50 [1, 2]","percentage in brackets after CC50 >51 (TZM-bl cells; printed ""(30%)"" without explanation, presumably toxicity at 51 μM)"
"Cc1nc(C(CCN(C)C)NC(=O)c2ccc(-c3ccc(Cl)cc3)[nH]2)sc1CO (single isomer, unassigned) [Compound 77]",10.4 ± 2 µM,40.2 ± 3 µM,,
"CNCCC(NC(=O)c1ccc(-c2ccc(C)c(F)c2)[nH]1)c1nc(C)c(CO)s1 (single isomer, unassigned) [Compound 79]",1.6 ± 0.4 µM,38.9 ± 2.1 µM,,
"CNCCC(NC(=O)c1ccc(-c2ccc(Cl)c(F)c2)[nH]1)c1nc(C)c(CO)s1 (single isomer, unassigned) [Compound 81]",1.5 ± 0.4 µM,22 ± 0.6 µM,,
"CNCCC(NC(=O)c1ccc(-c2ccc(Cl)cc2)[nH]1)c1nc(C)c(CO)s1 (single isomer, unassigned) [Compound 83]",1.7 ± 0.2 µM,23 ± 0.6 µM,,
"Cc1ccc(-c2ccc(C(=O)NC(CCN)c3nc(C)c(CO)s3)[nH]2)cc1F (single isomer, unassigned) [Compound 85]",4.2 ± 1.7 µM,43.8 ± 1.6 µM,,
"Cc1nc(C(CCN)NC(=O)c2ccc(-c3ccc(Cl)c(F)c3)[nH]2)sc1CO (single isomer, unassigned) [Compound 87]",6.6 ± 2 µM,35 ± 3 µM,,
"Cc1nc(C(CCN)NC(=O)c2ccc(-c3ccc(Cl)cc3)[nH]2)sc1CO (single isomer, unassigned) [Compound 89]",4 ± 0.3 µM,41 ± 1 µM,,
"Cc1nc(C(CN)NC(=O)c2ccc(-c3ccc(Cl)cc3)n2C)sc1CO (single isomer, unassigned) [Compound 91]",,35.8 ± 0.3 µM,26 ± 1.4 µM,
"Cc1nc(C(CN)NC(=O)c2ccc(-c3ccc(Cl)cc3)n2C)sc1CO (single isomer, unassigned) [Compound 92]",25.8 ± 1.1 µM,36.7 ± 0.4 µM,,
"Cc1nc(C(CN)NC(=O)c2cnc(-c3ccc(Cl)cc3)[nH]2)sc1CO (single isomer, unassigned) [Compound 94]",,> 51 µM,,
"Cc1nc(C(CN)NC(=O)c2ncc(-c3ccc(Cl)cc3)[nH]2)sc1CO (single isomer, unassigned) [Compound 96]",~51 µM,> 51 µM,,
"Cc1cc(C(=O)NC(CN)c2nc(C)c(CO)s2)[nH]c1-c1ccc(Cl)cc1 (single isomer, unassigned) [Compound 98]",,22.2 ± 0.3 µM,,
"Cc1ccc(-c2ccc(C(=O)NC(CN)c3ncc(CO)s3)[nH]2)cc1F (single isomer, unassigned) [Compound 100]",,39.2 ± 0.8 µM,,
"NCC(NC(=O)c1ccc(-c2ccc(Cl)c(F)c2)[nH]1)c1ncc(CO)s1 (single isomer, unassigned) [Compound 102]",0.77 ± 0.04 µM,31.8 ± 0.4 µM,,
"NCC(NC(=O)c1ccc(-c2ccc(Cl)cc2)[nH]1)c1ncc(CO)s1 (single isomer, unassigned) [Compound 103]",,37.1 ± 0.3 µM,0.75 ± 0.2 µM,
"COc1cc(C(=O)NC(CN)c2nc(C)c(CO)s2)[nH]c1-c1ccc(Cl)cc1 (single isomer, unassigned) [Compound 106]",12.4 ± 2.5 µM,22.2 ± 2.5 µM,,
"Cc1nc(C(CNC(C)C)NC(=O)c2ccc(-c3ccc(Cl)cc3)[nH]2)sc1CO (single isomer, unassigned) [Compound 107]",,28.5 ± 3.5 µM,4.2 ± 0.3 µM,
"Cc1nc(C(CN)NC(=O)c2ccc(-c3ccc(Cl)cc3)[nH]2)sc1CN (single isomer, unassigned) [Compound 108]",,14.6 ± 0.2 µM,12.1 ± 0.5 µM,
"Cc1nc(C(NC(=O)c2ccc(-c3ccc(Cl)cc3)[nH]2)C(C)(C)N)sc1CO (single isomer, unassigned) [Compound 110]",1.1 ± 0.2 µM,20.6 ± 1.2 µM,,
"Cc1nc(C(NC(=O)c2ccc(-c3ccc(Cl)c(F)c3)[nH]2)C(C)(C)N)sc1CO (single isomer, unassigned) [Compound 112]",0.27 ± 0.04 µM,13.9 ± 0.7 µM,,
"Cc1ccc(-c2ccc(C(=O)NC(c3nc(C)c(CO)s3)C(C)(C)N)[nH]2)cc1F (single isomer, unassigned) [Compound 114]",0.34 ± 0.02 µM,17.8 ± 0.3 µM,,
"CNCC(NC(=O)c1ccc(-c2ccc(Cl)c(F)c2)[nH]1)c1ncc(CO)s1 (single isomer, unassigned) [Compound 115]",,17.3 ± 0.5 µM,0.95 ± 0.03 µM,
"CNCC(NC(=O)c1ccc(-c2ccc(Cl)c(F)c2)[nH]1)c1ncc(CO)s1 (single isomer, unassigned) [Compound 116]",1.4 ± 0.05 µM,17.4 ± 0.4 µM,,
"CNCC(NC(=O)c1ccc(-c2ccc(C)c(F)c2)[nH]1)c1ncc(CO)s1 (single isomer, unassigned) [Compound 117]",,27.4 ± 0.8 µM,1 ± 0.2 µM,
"Cc1nc(C(CN)NC(=O)c2ccc(-c3ccc(F)c(F)c3)[nH]2)sc1CO (single isomer, unassigned) [Compound 122]",,> 51 µM,,30%
CNc1cc(NC(=O)c2ccc(-c3ccc(F)c(Cl)c3)[nH]2)nc(NC(=N)N)n1 [Compound 53],,≥ 36 µM,,

# — US11059808B2, “Substituted phenylpyrrolecarboxamides with therapeutic activity in HIV” (New York Blood Center, Inc., priority 2014, dated 2021)
